Data set [1] concerns recombinant NL4-3 virus (Renilla luciferase in nef). The experiment in a line: HIV cell culture assay (antiviral activity, luciferase readout in MT-2 cells). Conditions: Renilla, NL43. The data set is classed as cell-based. The method in brief:
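MT-2 cells were infected for 4-5 days with 293T-derived recombinant NL4-3 reporter virus in the presence of serially diluted compound. Antiviral activity was quantified as luciferase activity using a live-cell substrate. EC50 was derived from the median effect equation.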

The nature of data set [2]: Compound cytotoxicity, XTT-based colorimetric assay. Conditions: human; uninfected MT2 cells, day 4, XTT. It counts as cell-based. On the procedure:
Compound cytotoxicity and the corresponding CC50 values were determined using the same protocol as described in the antiviral assay except that uninfected cells were used. Cytotoxicity was assessed on day 4 in uninfected MT2 cells by using an XTT (2,3-bis[2-Methoxy-4-nitro-5-sulfophenyl]-2H-tetrazolium-5-carboxyanilide inner salt)-based colorimetric assay (Sigma-Aldrich, St Louis, Mo.).
On the technique in general: Tetrazolium assays rely on reduction of a dye to a coloured formazan, in cell work by metabolically active cells.

The source of these data is US20230013823A1, “INHIBITORS OF HUMAN IMMUNODEFICIENCY VIRUS REPLICATION” (VIV HEALTHCARE UK (No. 5) LIMITED, priority 2019, published 2023).

Molecules are shown by their SMILES. pEC50: −log10 of the molar value.

On to `COCc1ccccc1-c1ccc2c(=O)n(-c3ccc(Cl)c4c(NS(C)(=O)=O)nn(C)c34)c([C@H](Cc3cc(F)cc(F)c3)NC(=O)Cn3nc(C(F)F)c4c3C(F)(F)[C@@H]3C[C@H]43)nc2c1` (atropisomer, axis not shown; (P)) [Example 19, N—((S)-1-((3P)-3-(4-chloro-1-methyl-3-(methylsulfonamido)-1H-indazol-7-yl)-7-(2-(methoxymethyl)phenyl)-4-oxo-3,4-dihydroquinazolin-2-yl)-2-(3,5-difluorophenyl)ethyl)-2-((3bS,4aR)-3-(difluoromethyl)-5,5-difluoro-3b,4,4a,5-tetrahydro-1H-cyclopropa[3,4]cyclopenta[1,2-c]pyrazol-1-yl)acetamide], for which the pEC50 (as a rule, −log10 of the EC50, conventionally taken in molar units) in data set [1] was 9.80. The half-maximal cytotoxic concentration (CC50) (usually the concentration giving 50% cytotoxicity) at 4 days in data set [2] is greater than 500 nM.

On to `Cc1cc(-c2ccc3c(=O)n(-c4ccc(Cl)c5c(NS(C)(=O)=O)nn(C)c45)c([C@H](Cc4cc(F)cc(F)c4)NC(=O)Cn4nc(C(F)F)c5c4C(F)(F)[C@@H]4C[C@H]54)nc3c2)nn1CC(C)(F)F` (atropisomer, axis not shown; (P)) [Example 68, N—((S)-1-((3P)-3-(4-chloro-1-methyl-3-(methylsulfonamido)-1H-indazol-7-yl)-7-(1-(2,2-difluoropropyl)-5-methyl-1H-pyrazol-3-yl)-4-oxo-3,4-dihydroquinazolin-2-yl)-2-(3,5-difluorophenyl)ethyl)-2-((3bS,4aR)-3-(difluoromethyl)-5,5-difluoro-3b,4,4a,5-tetrahydro-1H-cyclopropa[3,4]cyclopenta[1,2-c]pyrazol-1-yl)acetamide], for which the pEC50 in data set [1] was 10.02. The same compound had a CC50 at 4 days in data set [2] greater than 100 nM.

Take `Cn1nc(NS(C)(=O)=O)c2c(Cl)ccc(-n3c([C@H](Cc4cc(F)cc(F)c4)NC(=O)Cn4nc(C(F)F)c5c4C(F)(F)[C@@H]4C[C@H]54)nc4cc(-c5ccn(CC(C)(C)C)n5)ccc4c3=O)c21` (atropisomer, axis not shown; (P)) [Example 29, N—((S)-1-((3P)-3-(4-chloro-1-methyl-3-(methylsulfonamido)-1H-indazol-7-yl)-7-(1-neopentyl-1H-pyrazol-3-yl)-4-oxo-3,4-dihydroquinazolin-2-yl)-2-(3,5-difluorophenyl)ethyl)-2-((3bS,4aR)-3-(difluoromethyl)-5,5-difluoro-3b,4,4a,5-tetrahydro-1H-cyclopropa[3,4]cyclopenta[1,2-c]pyrazol-1-yl)acetamide]: in data set [1], the negative-log EC50 (pEC50) is 9.68. In data set [2], the 50% cytotoxic concentration (CC50) at 4 days was greater than 500 nM.

In the case of `Cc1cc(-c2ccc3c(=O)n(-c4ccc(Cl)c5c(NS(C)(=O)=O)nn(C)c45)c([C@H](Cc4cc(F)cc(F)c4)NC(=O)Cn4nc(C(F)F)c5c4C(F)(F)[C@@H]4C[C@H]54)nc3c2)nc(C(F)(F)F)n1` (atropisomer, axis not shown; (P)) [Example 26, N—((S)-1-((3P)-3-(4-chloro-1-methyl-3-(methylsulfonamido)-1H-indazol-7-yl)-7-(6-methyl-2-(trifluoromethyl)pyrimidin-4-yl)-4-oxo-3,4-dihydroquinazolin-2-yl)-2-(3,5-difluorophenyl)ethyl)-2-((3bS,4aR)-3-(difluoromethyl)-5,5-difluoro-3b,4,4a,5-tetrahydro-1H-cyclopropa[3,4]cyclopenta[1,2-c]pyrazol-1-yl)acetamide], in data set [1], the pEC50 is 10.06. The half-maximal cytotoxic concentration (CC50) at 4 days in data set [2] was greater than 100 nM.

`Cn1nc(NS(C)(=O)=O)c2c(Cl)ccc(-n3c([C@H](Cc4cc(F)cc(F)c4)NC(=O)Cn4nc(C(F)F)c5c4C(F)(F)[C@@H]4C[C@H]54)nc4cc(-c5csc(C(F)(F)F)n5)ccc4c3=O)c21` (atropisomer, axis not shown; (P)) [Example 1, N—((S)-1-((3P)-3-(4-chloro-1-methyl-3-(methylsulfonamido)-1H-indazol-7-yl)-4-oxo-7-(2-(trifluoromethyl)thiazol-4-yl)-3,4-dihydroquinazolin-2-yl)-2-(3,5-difluorophenyl)ethyl)-2-((3bS,4aR)-3-(difluoromethyl)-5,5-difluoro-3b,4,4a,5-tetrahydro-1H-cyclopropa[3,4]cyclopenta[1,2-c]pyrazol-1-yl)acetamide]: the pEC50 in data set [1] was 10.04. Further, the CC50 at 4 days in data set [2] was greater than 100 nM.

`Cc1cc(C#N)nc(-c2ccc3c(=O)n(-c4ccc(Cl)c5c(NS(C)(=O)=O)nn(C)c45)c([C@H](Cc4cc(F)cc(F)c4)NC(=O)Cn4nc(C(F)F)c5c4C(F)(F)[C@@H]4C[C@H]54)nc3c2)n1` (atropisomer, axis not shown; (P)) [Example 12, N—((S)-1-((3P)-3-(4-chloro-1-methyl-3-(methylsulfonamido)-1H-indazol-7-yl)-7-(4-cyano-6-methylpyrimidin-2-yl)-4-oxo-3,4-dihydroquinazolin-2-yl)-2-(3,5-difluorophenyl)ethyl)-2-((3bS,4aR)-3-(difluoromethyl)-5,5-difluoro-3b,4,4a,5-tetrahydro-1H-cyclopropa[3,4]cyclopenta[1,2-c]pyrazol-1-yl)acetamide]: the pEC50 in data set [1] was 10.06. Besides, in data set [2], the CC50 at 4 days is greater than 500 nM.

For the compound `Cn1nc(NS(C)(=O)=O)c2c(Cl)ccc(-n3c([C@H](Cc4cc(F)cc(F)c4)NC(=O)Cn4nc(C(F)F)c5c4C(F)(F)[C@@H]4C[C@H]54)nc4cc(-c5ccn(CCC(C)(F)F)n5)ccc4c3=O)c21` (atropisomer, axis not shown; (P)) [Example 52, N—((S)-1-((3P)-3-(4-chloro-1-methyl-3-(methylsulfonamido)-1H-indazol-7-yl)-7-(1-(3,3-difluorobutyl)-1H-pyrazol-3-yl)-4-oxo-3,4-dihydroquinazolin-2-yl)-2-(3,5-difluorophenyl)ethyl)-2-((3bS,4aR)-3-(difluoromethyl)-5,5-difluoro-3b,4,4a,5-tetrahydro-1H-cyclopropa[3,4]cyclopenta[1,2-c]pyrazol-1-yl)acetamide], the negative logarithm of the EC50 (pEC50) in data set [1] was 10.17. The same compound displayed a CC50 at 4 days in data set [2] greater than 100 nM.

For the compound `CS(=O)(=O)Nc1nn(CCCF)c2c(-n3c([C@H](Cc4cc(F)cc(F)c4)NC(=O)Cn4nc(C(F)F)c5c4C(F)(F)[C@@H]4C[C@H]54)nc4cc(-c5ccnn5CC(F)(F)C(F)F)ccc4c3=O)ccc(Cl)c12` [Example 62, N—((S)-1-((3P)-3-(4-chloro-1-(3-fluoropropyl)-3-(methylsulfonamido)-1H-indazol-7-yl)-4-oxo-7-(1-(2,2,3,3-tetrafluoropropyl)-1H-pyrazol-5-yl)-3,4-dihydroquinazolin-2-yl)-2-(3,5-difluorophenyl)ethyl)-2-((3bS,4aR)-3-(difluoromethyl)-5,5-difluoro-3b,4,4a,5-tetrahydro-1H-cyclopropa[3,4]cyclopenta[1,2-c]pyrazol-1-yl)acetamide], in data set [1], the negative-log EC50 (pEC50) is 10.13. In data set [2], this compound displayed a half-maximal cytotoxic concentration (CC50) at 4 days greater than 100 nM.

For `Cn1nc(NS(C)(=O)=O)c2c(Cl)ccc(-n3c([C@H](Cc4cc(F)cc(F)c4)NC(=O)Cn4nc(C(F)F)c5c4C(F)(F)[C@@H]4C[C@H]54)nc4cc(-c5ncc(F)cc5F)ccc4c3=O)c21` (atropisomer, axis not shown; (P)) [Example 7, N—((S)-1-((3P)-3-(4-chloro-1-methyl-3-(methylsulfonamido)-1H-indazol-7-yl)-7-(3,5-difluoropyridin-2-yl)-4-oxo-3,4-dihydroquinazolin-2-yl)-2-(3,5-difluorophenyl)ethyl)-2-((3bS,4aR)-3-(difluoromethyl)-5,5-difluoro-3b,4,4a,5-tetrahydro-1H-cyclopropa[3,4]cyclopenta[1,2-c]pyrazol-1-yl)acetamide], the pEC50 in data set [1] was 9.77. In data set [2], this compound displayed a half-maximal cytotoxic concentration (CC50) at 4 days greater than 500 nM.

Consider `Cn1nc(NS(C)(=O)=O)c2c(Cl)ccc(-n3c([C@H](Cc4cc(F)cc(F)c4)NC(=O)Cn4nc(C(F)F)c5c4C(F)(F)[C@@H]4C[C@H]54)nc4cc(-c5ccnc(C#N)n5)ccc4c3=O)c21` (atropisomer, axis not shown; (P)) [Example 11, N—((S)-1-((3P)-3-(4-chloro-1-methyl-3-(methylsulfonamido)-1H-indazol-7-yl)-7-(2-cyanopyrimidin-4-yl)-4-oxo-3,4-dihydroquinazolin-2-yl)-2-(3,5-difluorophenyl)ethyl)-2-((3bS,4aR)-3-(difluoromethyl)-5,5-difluoro-3b,4,4a,5-tetrahydro-1H-cyclopropa[3,4]cyclopenta[1,2-c]pyrazol-1-yl)acetamide], for which, in data set [1], the negative-log EC50 (pEC50) is 10.05. The 50% cytotoxic concentration (CC50) at 4 days in data set [2] was greater than 500 nM.

As to `Cn1nc(NS(C)(=O)=O)c2c(Cl)ccc(-n3c([C@H](Cc4cc(F)cc(F)c4)NC(=O)Cn4nc(C(F)F)c5c4C(F)(F)[C@@H]4C[C@H]54)nc4cc(-c5nc(C(F)(F)F)ccc5F)ccc4c3=O)c21` (atropisomer, axis not shown; (P)) [Example 21, N—((S)-1-((3P)-3-(4-chloro-1-methyl-3-(methylsulfonamido)-1H-indazol-7-yl)-7-(3-fluoro-6-(trifluoromethyl)pyridin-2-yl)-4-oxo-3,4-dihydroquinazolin-2-yl)-2-(3,5-difluorophenyl)ethyl)-2-((3bS,4aR)-3-(difluoromethyl)-5,5-difluoro-3b,4,4a,5-tetrahydro-1H-cyclopropa[3,4]cyclopenta[1,2-c]pyrazol-1-yl)acetamide], in data set [1], the negative-log EC50 (pEC50) is 9.82. In data set [2], this compound showed a half-maximal cytotoxic concentration (CC50) at 4 days greater than 100 nM.

Take `Cn1nc(NS(C)(=O)=O)c2c(Cl)ccc(-n3c([C@H](Cc4cc(F)cc(F)c4)NC(=O)Cn4nc(C(F)F)c5c4C(F)(F)[C@@H]4C[C@H]54)nc4cc(-c5ccn(CCC(F)(F)F)n5)ccc4c3=O)c21` (atropisomer, axis not shown; (P)) [Example 50, N—((S)-1-((3P)-3-(4-chloro-1-methyl-3-(methylsulfonamido)-1H-indazol-7-yl)-4-oxo-7-(1-(3,3,3-trifluoropropyl)-1H-pyrazol-3-yl)-3,4-dihydroquinazolin-2-yl)-2-(3,5-difluorophenyl)ethyl)-2-((3bS,4aR)-3-(difluoromethyl)-5,5-difluoro-3b,4,4a,5-tetrahydro-1H-cyclopropa[3,4]cyclopenta[1,2-c]pyrazol-1-yl)acetamide]: in data set [1], the pEC50 was 10.18. Moreover, the half-maximal cytotoxic concentration (CC50) at 4 days in data set [2] is greater than 100 nM.
